As usually defined, the IC50 is the concentration at which inhibition is half-maximal.

Each structure is given as a SMILES string. Bounds are passed on as bounds.

Test [1] has as its system Human gastric cancer cell line MKN-45. As to the kind of experiment: Human gastric cancer cell line MKN-45 growth inhibitory test. Type of test: cell-based. Conditions: MKN-45, 72 h, culture for 3 days; for inhibition at 1 µM: 1 μM test substance, read-out: inhibitory rate (%) at 1 μM; for IC50: read-out: IC50 value. How it is done: Human gastric cancer cell line MKN-45 (RIKEN BioResource Center) was cultured in RPMI1640 (Invitrogen) containing 10% bovine fetal serum in a gas incubator at 37° C., 5% CO2. MKN-45 cells were treated with trypsin/EDTA and recovered. The cells were suspended in RPMI1640 containing 0.3% bovine fetal serum, plated on a 96 well flat bottom plate at a cells density of 3000 cells/50 μL per well. After culturing overnight, various concentrations of test substance were dissolved in RPMI1640 containing 0.3% bovine fetal serum and added to each well by 50 μL. After culture for 3 days, a Cell counting kit-8 reagent (DOJINDO LABORATORIES) was added to each well by 10 μL, and reacted in an incubator at 37° C., 5% CO2 for 2-3 hr. After the reaction, the absorbance of each well at 450 nm was measured by a microtiter plate reader. The concentration of a test substance necessary for inhibiting the growth by 50% (IC50 value) was calculated using a cell proliferation rate with addition of the test substance at each concentration and according to the nonlinear regression analysis using GraphPad Prism [Sigmoidal dose response (variable slope)]. The cell proliferation rate (%) with addition of a test substance at each concentration was calculated by the following formula. As a positive control (100% growth), dimethyl sulfoxide was added instead of a test substance. As a negative control (0% growth), the compound of Reference Example 136 (WO2005/030140, Entry 104), which is a known c-Met inhibitor, was added in large excess (10 μM) instead of a test substance.

Test [2] deals with T1, c-Met intracellular domain protein (Homo sapiens, UniProt P08581).
T1 construct: 2.5 ng/ml of c-Met intracellular domain protein (Millipore); purchased Millipore
As to the kind of experiment: Hepatocyte growth factor receptor (c-Met) kinase inhibitory activity (AlphaScreen). The format is biochemical. Particulars: for inhibition at 1 µM: 1 μM test compound, read-out: inhibitory rate (%) at 1 μM. How it is done:
A test compound dissolved in dimethyl sulfoxide (DMSO) was diluted with a buffer (50 mM Tris-HCl (pH 7.5), 5 mM MgCl2, 5 mM MnCl2, 2 mM dithiothreitol, 0.01% Tween-20). To this compound solution (5 μL) was added a buffer (10 μL) containing 2.5 ng/ml of c-Met intracellular domain protein (Millipore) and 250 ng/mL of biotin labeled polypeptide biotinyl-poly-Glu:Tyr (4:1) (CIS bio International). […] The reaction solution was allowed to stand at 25° C. for 16 hrs, and the wells were counted using a plate reader (Fusion™ (PerkinElmer)). The kinase inhibitory rate (%) of the test compound was calculated by the following formula: Inhibitory rate (%)=(1−(count of test compound−blank)÷(control−blank))×100
(§1) The count of the solution reacted without addition of the compound was used as a “control”, and the count of the solution without the compound and ATP was used as a “blank”.
In general terms: Bead proximity is the source of the signal in Alpha formats.

The target of test [3] is T2, FLT3 intracellular domain protein (Homo sapiens, UniProt P36888).
T2 construct: 7.5 ng/ml of FLT3 intracellular domain protein (Millipore); purchased Millipore
T2 sequence (P36888 564-993 limits assumed): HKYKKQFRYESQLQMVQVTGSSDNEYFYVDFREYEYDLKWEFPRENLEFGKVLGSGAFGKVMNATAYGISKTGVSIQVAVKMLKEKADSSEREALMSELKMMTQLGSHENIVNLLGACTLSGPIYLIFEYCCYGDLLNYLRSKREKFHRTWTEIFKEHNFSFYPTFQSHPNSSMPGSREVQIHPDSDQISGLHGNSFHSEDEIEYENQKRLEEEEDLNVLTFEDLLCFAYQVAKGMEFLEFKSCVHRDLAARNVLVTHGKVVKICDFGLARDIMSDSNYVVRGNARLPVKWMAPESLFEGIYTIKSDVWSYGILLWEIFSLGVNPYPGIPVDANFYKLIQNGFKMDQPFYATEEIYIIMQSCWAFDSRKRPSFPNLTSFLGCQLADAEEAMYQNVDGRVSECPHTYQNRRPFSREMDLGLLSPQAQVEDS
The test can be described thus: Fms Like Tyrosine Kinase 3 (FLT3) kinase inhibitory activity (AlphaScreen). Particulars: for inhibition at 1 µM: 1 μM test compound, read-out: inhibitory rate (%) at 1 μM. The format is biochemical. How it is done: A test compound dissolved in dimethyl sulfoxide (DMSO) was diluted with a buffer (50 mM Tris-HCl (pH 7.5), 5 mM MgCl2, 5 mM MnCl2, 2 mM dithiothreitol, 0.01% Tween-20). To this compound solution (5 μL) was added a buffer (10 μL) containing 7.5 ng/ml of FLT3 intracellular domain protein (Millipore) and 250 ng/mL of biotin labeled polypeptide biotinyl-poly-Glu:Tyr (4:1) (CIS bio International). At 5 min after mixing kinase enzyme and the compound and biotin labeled polypeptide, to the obtained mixture was added a buffer (10 μL) containing ATP (5 μM), the mixture was allowed to react at 25° C. for 10 min and the reaction was quenched with 25 μL of a stop solution (100 mM EDTA disodium salt, 62.5 mM HEPES buffer (pH 7.4), 250 mM NaCl, 0.1% bovine serum albumin, 10 μg/mL AlphaScreen assay streptavidin donor beads (Streptavidin Donor Beads: PerkinElmer), 10 μg/mL AlphaScreen assay anti-phosphotyrosine recognition antibody Y-100 binding acceptor beads (Anti-phosphotyrosine (P-Tyr-100) Acceptor beads: PerkinElmer)). The reaction solution was allowed to stand at 25° C. for 16 hrs, and the wells were counted using a plate reader (Envision™ (PerkinElmer)). The kinase inhibitory rate (%) of the test compound was calculated by the following formula: Inhibitory rate (%)=(1−(count of test compound−blank)÷(control−blank))×100
as §1

T1 sequence (P08581 956-1390 limits assumed): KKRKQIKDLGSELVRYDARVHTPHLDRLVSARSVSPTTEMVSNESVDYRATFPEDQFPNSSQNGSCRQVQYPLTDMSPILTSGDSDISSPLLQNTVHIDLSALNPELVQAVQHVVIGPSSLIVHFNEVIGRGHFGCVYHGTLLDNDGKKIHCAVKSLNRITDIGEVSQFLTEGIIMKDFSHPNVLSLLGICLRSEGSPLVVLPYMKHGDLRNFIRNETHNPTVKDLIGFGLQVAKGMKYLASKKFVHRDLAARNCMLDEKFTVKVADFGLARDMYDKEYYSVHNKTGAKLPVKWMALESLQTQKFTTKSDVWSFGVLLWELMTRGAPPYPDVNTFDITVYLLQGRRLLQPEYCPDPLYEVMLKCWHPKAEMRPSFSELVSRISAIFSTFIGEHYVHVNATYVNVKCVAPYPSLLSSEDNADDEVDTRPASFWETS

As for `O=C(Nc1ccc(Oc2ccc3nc(NC(=O)C4CC4)cn3c2)c(F)c1)c1cccn(-c2ccc(F)cc2)c1=O` [Example 10, N-[4-({2-[(cyclopropylcarbonyl)amino]imidazo[1,2-a]pyridin-6-yl}oxy)-3-fluorophenyl]-1-(4-fluorophenyl)-2-oxo-1,2-dihydropyridine-3-carboxamide], the inhibition at 1 µM was at least 80% in test [1], at least 80% in test [2] and at least 50% in test [3]. The IC50 in test [1], in test [2] and in test [3] was at most 1 µM each time.

Regarding `O=C(Nc1cn2cc(Oc3ccc(NC(=O)C4(C(=O)Nc5ccc(F)cc5)CC4)cc3F)ccc2n1)C1CC1` [Example 11, N-[4-({2-[(cyclopropylcarbonyl)amino]imidazo[1,2-a]pyridin-6-yl}oxy)-3-fluorophenyl]-N′-(4-fluorophenyl)cyclopropane-1,1-dicarboxamide], the inhibition at 1 µM in test [1] and in test [2] was at least 80% in each case. Besides, the IC50 in test [1], in test [2] and in test [3] was at most 1 µM throughout.

For the compound `O=C(Nc1cn2cc(Oc3ccc(NC(=O)C4(C(=O)Nc5ccccc5)CC4)cc3F)ccc2n1)C1CC1` [Example 14, N-[4-({2-[(cyclopropylcarbonyl)amino]imidazo[1,2-a]pyridin-6-yl}oxy)-3-fluorophenyl]-N′-phenylcyclopropane-1,1-dicarboxamide], the inhibition at 1 µM in test [1] and in test [2] was at least 80% each time. Further, the IC50 in test [1], in test [2] and in test [3] was at most 1 µM each time.

`O=C(Nc1nc2ccc(Oc3ccc(NC(=O)C4(C(=O)Nc5ccccc5)CC4)cc3F)cc2s1)C1CC1` [Example 18, N-[4-({2-[(cyclopropylcarbonyl)amino]-1,3-benzothiazol-6-yl}oxy)-3-fluorophenyl]-N′-phenylcyclopropane-1,1-dicarboxamide]: the inhibition at 1 µM in test [1] was at least 80%; in test [2] it was at least 80%; in test [3], at least 50%. Besides, the 50% inhibitory concentration (IC50) in test [1], in test [2] and in test [3] was at most 1 µM in each case.

As for `Cc1ccc(C(=O)Nc2ccc(Oc3ccc4nc(NC(=O)C5CC5)cn4c3)cc2)c(=O)n1-c1ccc(F)cc1` [Example 28, N-[4-({2-[(cyclopropylcarbonyl)amino]imidazo[1,2-a]pyridin-6-yl}oxy)phenyl]-1-(4-fluorophenyl)-6-methyl-2-oxo-1,2-dihydropyridine-3-carboxamide], the inhibition at 1 µM in test [1] was at least 80%; in test [2] it was at least 80%; in test [3], at least 50%. Moreover, the half-maximal inhibitory concentration (IC50) in test [1], in test [2] and in test [3] was at most 1 µM each time.

On to `Cc1ccc(C(=O)Nc2ccc(Oc3ccc4nc(NC(=O)C5CC5)cn4c3)c(F)c2)[n+]([O-])c1-c1ccc(F)cc1` [Example 29, N-[4-({2-[(cyclopropylcarbonyl)amino]imidazo[1,2-a]pyridin-6-yl}oxy)-3-fluorophenyl]-6-(4-fluorophenyl)-5-methylpyridine-2-carboxamide 1-oxide], for which the inhibition at 1 µM in test [1] and in test [2] was at least 80% in each case. The IC50 in test [1], in test [2] and in test [3] was at most 1 µM in each case.

On to `Cc1ccc(C(=O)Nc2ccc(Oc3ccc4nc(NC(=O)C5CC5)cn4c3)c(F)c2)c(=O)n1-c1ccc(F)cc1.Cl` [Example 32, N-[4-({2-[(cyclopropylcarbonyl)amino]imidazo[1,2-a]pyridin-6-yl}oxy)-3-fluorophenyl]-1-(4-fluorophenyl)-6-methyl-2-oxo-1,2-dihydropyridine-3-carboxamide hydrochloride], for which, in test [1], the inhibition at 1 µM is at least 80% and the IC50 is at most 1 µM. In test [2], the IC50 is at most 1 µM and the inhibition at 1 µM was at least 80%.

In the case of `Cc1ccc(C(=O)Nc2ccc(Oc3ccc4nc(NC(=O)C5CC5)cn4c3)c(F)c2)c(=O)n1-c1ccc(F)c(F)c1` [Example 45, N-[4-({2-[(cyclopropylcarbonyl)amino]imidazo[1,2-a]pyridin-6-yl}oxy)-3-fluorophenyl]-1-(3,4-difluorophenyl)-6-methyl-2-oxo-1,2-dihydropyridine-3-carboxamide], the inhibition at 1 µM in test [1] and in test [2] was at least 80% throughout. Moreover, the IC50 in test [1], in test [2] and in test [3] was at most 1 µM in each case.

Consider `Cc1c(C(=O)Nc2ccc(Oc3ccc4nc(NC(=O)C5CC5)cn4c3)c(F)c2)c(=O)n(-c2ccccc2)n1C` [Example 46, N-[4-({2-[(cyclopropylcarbonyl)amino]imidazo[1,2-a]pyridin-6-yl}oxy)-3-fluorophenyl]-1,5-dimethyl-3-oxo-2-phenyl-2,3-dihydro-1H-pyrazole-4-carboxamide], for which the inhibition at 1 µM in test [1] and in test [2] was at least 80% each time. Besides, the IC50 in test [1], in test [2] and in test [3] was at most 1 µM each time.

Consider `O=C(Nc1cn2cc(Oc3ccc(NC(=O)N4CCN(c5ccc(F)cc5)C4=O)cc3F)ccc2n1)C1CC1` [Example 53, N-[4-({2-[(cyclopropylcarbonyl)amino]imidazo[1,2-a]pyridin-6-yl}oxy)-3-sfluorophenyl]-3-(4-fluorophenyl)-2-oxoimidazolidine-1-carboxamide], for which the inhibition at 1 µM in test [1] was at least 80%; in test [2] it was at least 80%; in test [3], at least 50%. For the same compound, the IC50 in test [1], in test [2] and in test [3] was at most 1 µM each time.

As for `Cc1ccc(C(=O)Nc2ccc(Oc3ccc4nc(NC(=O)C5CC5)cn4c3)c(Cl)c2)c(=O)n1-c1ccc(F)cc1` [Example 57, N-[3-chloro-4-({2-[(cyclopropylcarbonyl)amino]imidazo[1,2-a]pyridin-6-yl}oxy)phenyl]-1-(4-fluorophenyl)-6-methyl-2-oxo-1,2-dihydropyridine-3-carboxamide], the inhibition at 1 µM in test [1] and in test [2] was at least 80% in each case. The IC50 in test [1], in test [2] and in test [3] was at most 1 µM each time.

These data come from patent US8445509B2, “Fused heterocyclic derivatives and use thereof” (Takeda Pharmaceutical Company Limited, priority 2008, dated 2013).
